Reference: US8158646B2, “Antifungal and antiparasitic indoloquinoline derivates” (Florida Agricultural and Mechanical University, priority 2006, dated 2012)
≈ marks a conversion by molar mass, not a printed value. Like-named read-outs stand apart in the source and are kept apart here. Blank lines part the entries; values can stand above or below the molecule they belong to.

Legend:
[1] = test system: methicillin-resistant S. aureus ATCC 43300; assay: Antimicrobial susceptibility testing, MRSA; assay type: cell-based, Staphylococcus aureus; details: Methicillin-Resistant Staphylococcus aureus; read-out: IC50 MRSA
Method: (§1) Compounds were evaluated in vitro against a panel of microorganisms, including Candida albicans ATCC 90028 (Ca), C. krusei ATCC 6258 (Ck), Cryptococcus neoformans ATCC 90113 (Cn), Staphylococcus aureus ATCC 29213 (Sa), methicillin-resistant S. aureus ATCC 43300 (MRSA), Pseudomonas aeruginosa ATCC 27853 (Pa), Aspergilllus fumigatus ATCC 90906 (Aj), and Mycobacterium intracellulare ATCC 23068 (Mi) as previously reported [Guoyi, M.; Khan, S.; Jacob, M. R; Tekwani, B. L.; Li, Z.; Pasco, D. S.; Walker, L. A.; Khan, 1. A.; Antimicrob Agents Chemother, 2004, 48, 4450-4452]. All organisms were obtained from the American Type Culture Collection (Manassas, Va.). Susceptibility testing was performed using a modified version of the NCCLS methods [a) National Committee for Clinical Laboratory Standards. 2000. Methods for dilution antimicrobial susceptibility tests for bacteria that grow aerobically. M7-A5. National Committee for Clinical Laboratory Standards, Wayne, Pa. b) National Committee for Clinical Laboratory Standards, 1997, Reference method for broth dilution antifungal susceptibility testing of yeasts. Approved standard M27-A. National Committee for Clinical Laboratory Standards, Wayne, Pa. c) National Committee for Clinical Laboratory Standards. 2000. Susceptibility testing of mycobacteria, nocardia, and other aerobic actinomycetes, 2nd ed. Tentative standard M24- T2. National Committee for Clinical Laboratory Standards, Wayne, Pa.] for all organisms except for M intracellulare, for which the modified Alamar blue procedure described by Franzblau et al [1998. J Clin Microbiol, 36, 362-366] was followed. Briefly, samples (dissolved in DMSO) were serially diluted by using 0.9% saline and transferred in duplicate to 96-well microplates. Microbial inocula were prepared after comparison of the absorbance (at 630 nm) of cell suspensions to the 0.5 McFarland standard and dilution of the suspensions in broth (Sabouraud dextrose and cation-adjusted Mueller-Hinton broth [Difco] for the fungi and bacteria, respectively, and 5% Alamar blue [BioSource international] in Middlebrook 7H9 broth with oleic acid-albumin-dextrose-catalase enrichment for M intracellulare) to afford recommended inoculum sizes. Microbial inocula were added to the samples to achieve a final volume of 200 μl and final sample concentrations starting with 100 μg/ml. Growth, solvent, and medium controls were included on each test plate. The plates were read at either 630 nm or excitation and emission wavelengths of 544 and 590 nm (for Mi) prior to and after incubation. Percent growth was calculated and plotted with the concentration tested to afford the concentration that inhibits 50% of growth (IC50). […]

[2] = test system: Staphylococcus aureus ATCC 29213; assay: Antimicrobial susceptibility testing, Sa; assay type: cell-based; details: ATCC29213
Method: (§2) Compounds were evaluated in vitro against a panel of microorganisms, including Candida albicans ATCC 90028 (Ca), C. krusei ATCC 6258 (Ck), Cryptococcus neoformans ATCC 90113 (Cn), Staphylococcus aureus ATCC 29213 (Sa), methicillin-resistant S. aureus ATCC 43300 (MRSA), Pseudomonas aeruginosa ATCC 27853 (Pa), Aspergilllus fumigatus ATCC 90906 (Aj), and Mycobacterium intracellulare ATCC 23068 (Mi) as previously reported [Guoyi, M.; Khan, S.; Jacob, M. R; Tekwani, B. L.; Li, Z.; Pasco, D. S.; Walker, L. A.; Khan, 1. A.; Antimicrob Agents Chemother, 2004, 48, 4450-4452]. All organisms were obtained from the American Type Culture Collection (Manassas, Va.). Susceptibility testing was performed using a modified version of the NCCLS methods [a) National Committee for Clinical Laboratory Standards. 2000. […] Microbial inocula were prepared after comparison of the absorbance (at 630 nm) of cell suspensions to the 0.5 McFarland standard and dilution of the suspensions in broth (Sabouraud dextrose and cation-adjusted Mueller-Hinton broth [Difco] for the fungi and bacteria, respectively, and 5% Alamar blue [BioSource international] in Middlebrook 7H9 broth with oleic acid-albumin-dextrose-catalase enrichment for M intracellulare) to afford recommended inoculum sizes. […] The plates were read at either 630 nm or excitation and emission wavelengths of 544 and 590 nm (for Mi) prior to and after incubation. […]

[3] = test system: Mycobacterium intracellulare ATCC 23068; assay: Modified Alamar blue procedure, Mi; assay type: cell-based; details: ATCC23068, read-out: IC50 Mi
Method: as §1

[4] = test system: Candida albicans ATCC 90028; assay: Antifungal susceptibility testing (modified NCCLS), Ca; assay type: cell-based
Method: (§3) Compounds were evaluated in vitro against a panel of microorganisms, including Candida albicans ATCC 90028 (Ca), C. krusei ATCC 6258 (Ck), Cryptococcus neoformans ATCC 90113 (Cn), Staphylococcus aureus ATCC 29213 (Sa), methicillin-resistant S. aureus ATCC 43300 (MRSA), Pseudomonas aeruginosa ATCC 27853 (Pa), Aspergilllus fumigatus ATCC 90906 (Aj), and Mycobacterium intracellulare ATCC 23068 (Mi) as previously reported [Guoyi, M.; Khan, S.; Jacob, M. R; Tekwani, B. L.; Li, Z.; Pasco, D. S.; Walker, L. A.; Khan, 1. A.; Antimicrob Agents Chemother, 2004, 48, 4450-4452]. All organisms were obtained from the American Type Culture Collection (Manassas, Va.). Susceptibility testing was performed using a modified version of the NCCLS methods [a) National Committee for Clinical Laboratory Standards. 2000. Methods for dilution antimicrobial susceptibility tests for bacteria that grow aerobically. M7-A5. National Committee for Clinical Laboratory Standards, Wayne, Pa. b) National Committee for Clinical Laboratory Standards, 1997, Reference method for broth dilution antifungal susceptibility testing of yeasts. Approved standard M27-A. National Committee for Clinical Laboratory Standards, Wayne, Pa. c) National Committee for Clinical Laboratory Standards. 2000. Susceptibility testing of mycobacteria, nocardia, and other aerobic actinomycetes, 2nd ed. Tentative standard M24- T2. National Committee for Clinical Laboratory Standards, Wayne, Pa.] for all organisms except for M intracellulare, for which the modified Alamar blue procedure described by Franzblau et al [1998. J Clin Microbiol, 36, 362-366] was followed. Briefly, samples (dissolved in DMSO) were serially diluted by using 0.9% saline and transferred in duplicate to 96-well microplates. Microbial inocula were prepared after comparison of the absorbance (at 630 nm) of cell suspensions to the 0.5 McFarland standard and dilution of the suspensions in broth (Sabouraud dextrose and cation-adjusted Mueller-Hinton broth [Difco] for the fungi and bacteria, respectively, and 5% Alamar blue [BioSource international] in Middlebrook 7H9 broth with oleic acid-albumin-dextrose-catalase enrichment for M intracellulare) to afford recommended inoculum sizes. Microbial inocula were added to the samples to achieve a final volume of 200 μl and final sample concentrations starting with 100 μg/ml. Growth, solvent, and medium controls were included on each test plate. The plates were read at either 630 nm or excitation and emission wavelengths of 544 and 590 nm (for Mi) prior to and after incubation. Percent growth was calculated and plotted with the concentration tested to afford the concentration that inhibits 50% of growth (IC50). Antimalarial and cytotoxicity testing were conducted in a similar manner as previously reported [a) Muhammad, 1.; Bedir, E.; Khan, S. I.; Tekwani, B. L.; Khan, I. A.; Takamatsu, S.; Pelletier, 1.; Walker, L. A. J Nat Prod. 2004, 67, 772-7. b) Muhammad, 1.; Dunbar, D. C.; Khan, S. 1.; Tekwani, B. L.; Bedir, E.; Takamatsu, S.; Ferreira, D, Walker L A., J Nat Prod. 2003, 66, 962-7].

[5] = test system: Pseudomonas aeruginosa ATCC 27853; assay: Antimicrobial susceptibility testing, Pa; assay type: cell-based; details: ATCC27853, NA = Not active up to 20 μg/ml
Method: as §2

Vero cells = assay: Cytotoxicity to mammalian cells (Vero); assay type: cell-based
Method: (§4) All organisms were obtained from the American Type Culture Collection (Manassas, Va.). Susceptibility testing was performed using a modified version of the NCCLS methods [a) National Committee for Clinical Laboratory Standards. 2000. Methods for dilution antimicrobial susceptibility tests for bacteria that grow aerobically. M7-A5. […] Approved standard M27-A. National Committee for Clinical Laboratory Standards, Wayne, Pa. c) National Committee for Clinical Laboratory Standards. 2000. Susceptibility testing of mycobacteria, nocardia, and other aerobic actinomycetes, 2nd ed. Tentative standard M24- T2. […] Briefly, samples (dissolved in DMSO) were serially diluted by using 0.9% saline and transferred in duplicate to 96-well microplates. Microbial inocula were prepared after comparison of the absorbance (at 630 nm) of cell suspensions to the 0.5 McFarland standard and dilution of the suspensions in broth (Sabouraud dextrose and cation-adjusted Mueller-Hinton broth [Difco] for the fungi and bacteria, respectively, and 5% Alamar blue [BioSource international] in Middlebrook 7H9 broth with oleic acid-albumin-dextrose-catalase enrichment for M intracellulare) to afford recommended inoculum sizes. Microbial inocula were added to the samples to achieve a final volume of 200 μl and final sample concentrations starting with 100 μg/ml. Growth, solvent, and medium controls were included on each test plate. […] Antimalarial and cytotoxicity testing were conducted in a similar manner as previously reported [a) Muhammad, 1.; Bedir, E.; Khan, S. I.; Tekwani, B. L.; Khan, I. A.; Takamatsu, S.; Pelletier, 1.; Walker, L. A. J Nat Prod.

[6] = test system: Plasmodium falciparum D6 Clone; assay: Antimalarial testing, D6 clone; assay type: cell-based; details: for IC50: Plasmodium falciparum
Method: as §4

[7] = test system: Plasmodium falciparum W2 Clone; assay: Antimalarial testing, W2 clone; assay type: cell-based; details: for IC50: Plasmodium falciparum
Method: as §3

[8] = test system: Aspergillus fumigatus ATCC 90906; assay: Antimicrobial susceptibility testing, Af; assay type: cell-based
Method: as §1

[9] = test system: Cryptococcus neoformans ATCC 90113; assay: Antifungal susceptibility testing (modified NCCLS), Cn; assay type: cell-based
Method: as §3

C. krusei ATCC 6258 = assay: Antimicrobial susceptibility testing, Ck; assay type: cell-based, Candida krusei; details: Candida krusei
Method: as §2, with “2000. Methods for dilution antimicrobial susceptibility tests for bacteria that grow aerobically. M7-A5. National Committee for Clinical Laboratory Standards, Wayne, Pa. b) National Committee for Clinical Laboratory Standards, 1997, Reference method for broth dilution antifungal susceptibility testing of yeasts. Approved standard M27-A. National Committee for Clinical Laboratory Standards, Wayne, Pa. c) National Committee for Clinical Laboratory Standards. 2000. Susceptibility testing of mycobacteria, nocardia, and other aerobic actinomycetes, 2nd ed. Tentative standard M24- T2.” for “2000.”

IC50 [1]: 3 µg/mL | IC50 [2]: 3 µg/mL | IC50 [3]: 7 µg/mL | IC50 ([4]; ATCC90028, NA not defined in Table 1, read-out: IC50 Ca): > 50 µg/mL | IC50 [5]: 1.5 µg/mL | IC50 ([6]; D6 Clone, read-out: Plasmodium falciparum IC50 Pf (D6)): 1.3 µg/mL | IC50 ([7]; W2 Clone, NA = Not active up to 20 μg/ml, read-out: Plasmodium falciparum IC50 Pf (W2)): 1 µg/mL | IC50 ([8]; ATCC90906, read-out: IC50 Af): 20 µg/mL | IC50 ([9]; ATCC90113, NA not defined in Table 1, read-out: IC50 Cn): 1.5 µg/mL
Structure (SMILES): c1ccc2c(c1)cc1[nH]c3ccccc3c1[n+]2CCCCC[n+]1c2ccccc2cc2[nH]c3ccccc3c21 [Compound 10]
Cytotoxicity (Vero) TC50 (Vero cells; African green monkey): >23.8 µg/mL | no cytotoxicity up to (concentration) (Vero cells; African green monkey): > 23.8 µg/mL | SI (D6) ([6]; SI = IC50 (vero cells)/IC50 (Pf), D6 Clone): >18.3 | SI (W2) ([7]; SI = IC50 (vero cells)/IC50 (Pf), W2 Clone): >23.8

melting point: 238 to 240 °C
Structure (SMILES): C[n+]1c2ccccc2cc2c1c1ccccc1n2CCCCCn1c2ccccc2c2c1cc1ccccc1[n+]2C (hydrate or solvate) [Compound 12]

IC50 ([6]; D6, read-out: Plasmodium falciparum IC50 Pf (D6)): 0.017 µg/mL (≈ 0.0531 µM) | IC50 ([7]; W2, read-out: Plasmodium falciparum IC50 Pf (W2)): 0.075 µg/mL (≈ 0.234 µM)
Structure (SMILES): CCN(CC)CCCC(C)Nc1ccnc2cc(Cl)ccc12 (stereo not drawn) [Chloroquine, reference compound]
Cytotoxicity (Vero) TC50 (Vero cells; Vero cells, NC = No Cytotoxicity observed up to 5 μg/ml): >23.8 µg/mL

melting point: 256 to 258 °C
Structure (SMILES): c1ccc2c(c1)cc1[nH]c3ccccc3c1[n+]2CCCCC[n+]1c2ccccc2cc2[nH]c3ccccc3c21 (hydrate or solvate) [Compound 10]

IC50 [1]: 0.15 µg/mL (≈ 0.453 µM) | IC50 [2]: 0.1 µg/mL (≈ 0.302 µM) | IC50 [5]: 0.06 µg/mL (≈ 0.181 µM)
Structure (SMILES): O=C(O)c1cn(C2CC2)c2cc(N3CCNCC3)c(F)cc2c1=O [Ciprofloxacin, reference compound]
IC50 [3]: 0.2 µg/mL (≈ 0.604 µM)

Structure (SMILES): C[C@@H]1[C@H](O)[C@@H](C)/C=C/C=C/C=C/C=C/C=C/C=C/C=C/[C@H](O[C@@H]2O[C@H](C)[C@@H](O)[C@H](N)[C@@H]2O)C[C@@H]2O[C@](O)(C[C@@H](O)C[C@@H](O)[C@H](O)CC[C@@H](O)C[C@@H](O)CC(=O)O[C@H]1C)C[C@H](O)[C@H]2C(=O)O [Amphotericin B, reference compound]
IC50 Ck (C. krusei ATCC 6258): 0.60 µg/mL (≈ 0.649 µM) | IC50 Ca ([4]; NA not defined in Table 1): 0.1 µg/mL (≈ 0.108 µM) | Cytotoxicity (Vero) TC50 (Vero cells): 6.5 µg/mL | IC50 Af [8]: 0.31 µg/mL (≈ 0.335 µM) | IC50 Cn ([9]; NA not defined in Table 1): 0.6 µg/mL (≈ 0.649 µM)
